Test [1] deals with T1, A2A adenosine receptors (Rattus norvegicus, UniProt P30543).
T1 construct: from tissue
To be noted: Table 3, cited from earlier work; for Ki: compounds 59, 68, values taken from van Rhee et al. 1996 and Jiang et al. 1997, read-out: rA2A Ki ± S.E.M.

The target of test [2] is T2, human A3 receptors (Homo sapiens, UniProt P0DMS8).
T2 construct: expressed in transfected cells
T2 sequence (P0DMS8 1-318): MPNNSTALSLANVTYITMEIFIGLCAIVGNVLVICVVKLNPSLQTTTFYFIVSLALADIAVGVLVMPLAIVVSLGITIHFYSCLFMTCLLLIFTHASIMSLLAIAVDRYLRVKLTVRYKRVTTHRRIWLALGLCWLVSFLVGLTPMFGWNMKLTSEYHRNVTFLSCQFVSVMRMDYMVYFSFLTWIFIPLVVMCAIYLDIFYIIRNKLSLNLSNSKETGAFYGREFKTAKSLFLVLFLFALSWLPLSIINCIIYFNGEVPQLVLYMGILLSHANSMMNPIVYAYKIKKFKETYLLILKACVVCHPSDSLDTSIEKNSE
The experiment in a line: Displacement of specific [125I]AB-MECA binding at human A3 receptors expressed in HEK cells, in membranes. The conditions noted are these: for Ki: [125I]AB-MECA, HEK cell membranes, n = 3-4, read-out: hA3 Ki ± S.E.M.; for rA1/hA3: ratio of affinities rat A1 vs human A3.

The target in test [3] is T3, A1 adenosine receptors (Rattus norvegicus, UniProt P25099).
T3 construct: from tissue
T3 sequence (P25099 1-326): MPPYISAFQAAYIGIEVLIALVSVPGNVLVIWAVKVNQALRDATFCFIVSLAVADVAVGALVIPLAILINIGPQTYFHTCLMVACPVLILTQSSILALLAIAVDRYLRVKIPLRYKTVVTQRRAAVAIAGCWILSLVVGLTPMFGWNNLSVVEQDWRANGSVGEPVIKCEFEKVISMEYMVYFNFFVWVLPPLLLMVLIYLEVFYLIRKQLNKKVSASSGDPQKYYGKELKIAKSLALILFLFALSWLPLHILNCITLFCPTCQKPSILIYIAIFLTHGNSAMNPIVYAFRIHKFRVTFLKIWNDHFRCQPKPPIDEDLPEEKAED
In words: Displacement of specific [3H]R-PIA binding in rat brain membranes. To be noted: for Ki: Table 2, compounds 33-58, [3H]R-PIA, rat brain membranes, n = 3-5, read-out: rA1 Ki ± S.E.M.; for inhibition at 100 µM: Table 3, read-out: rA1 % inhibition (percentage of specific binding displaced); for inhibition at 100 µM / rA1 percentage of specific binding displaced: at 10^−4 M; for rA1 percentage of specific binding displaced: Table 2.

Test [4] has as its target T4, rat A3 receptors (Rattus norvegicus, UniProt P28647).
T4 construct: expressed in transfected cells
T4 sequence (P28647 1-320): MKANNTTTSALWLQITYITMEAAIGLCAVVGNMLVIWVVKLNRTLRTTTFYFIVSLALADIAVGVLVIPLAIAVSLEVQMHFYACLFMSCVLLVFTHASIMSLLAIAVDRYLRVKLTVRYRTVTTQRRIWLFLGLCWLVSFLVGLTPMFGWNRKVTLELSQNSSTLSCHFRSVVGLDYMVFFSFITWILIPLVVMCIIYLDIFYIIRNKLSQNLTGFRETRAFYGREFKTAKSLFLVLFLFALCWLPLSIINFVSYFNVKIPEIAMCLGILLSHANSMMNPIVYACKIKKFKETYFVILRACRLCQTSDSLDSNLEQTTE
In words: Displacement of specific [125I]AB-MECA binding at rat A3 receptors stably expressed in CHO cells. To be noted: for Ki / rA3/hA3 / rA1/rA3: Table 4; for Ki: [125I]AB-MECA, CHO cells, n = 3-5, read-out: rA3 Ki; for rA3/hA3: ratio of affinities at rat vs. human A3 receptors; for rA1/rA3: ratio of affinities rat A1 vs rat A3.

The target in test [5] is T1, A2A adenosine receptors. In words: Displacement of specific [3H]CGS 21680 binding in rat striatal membranes. To be noted: for Ki: [3H]CGS 21680, rat striatal membranes, n = 3-6, read-out: rA2A Ki ± S.E.M.; for rA2A displacement of specific binding (class d): at 10^−4 M.

Read-outs that look alike come from different tables or passages of the source.

A word on the Ki: it is the equilibrium dissociation constant of an inhibitor or competing ligand from its target. The term inhibition denotes the change of the read-out against control, counted positive when it falls.

T1 sequence (P30543 whole entry): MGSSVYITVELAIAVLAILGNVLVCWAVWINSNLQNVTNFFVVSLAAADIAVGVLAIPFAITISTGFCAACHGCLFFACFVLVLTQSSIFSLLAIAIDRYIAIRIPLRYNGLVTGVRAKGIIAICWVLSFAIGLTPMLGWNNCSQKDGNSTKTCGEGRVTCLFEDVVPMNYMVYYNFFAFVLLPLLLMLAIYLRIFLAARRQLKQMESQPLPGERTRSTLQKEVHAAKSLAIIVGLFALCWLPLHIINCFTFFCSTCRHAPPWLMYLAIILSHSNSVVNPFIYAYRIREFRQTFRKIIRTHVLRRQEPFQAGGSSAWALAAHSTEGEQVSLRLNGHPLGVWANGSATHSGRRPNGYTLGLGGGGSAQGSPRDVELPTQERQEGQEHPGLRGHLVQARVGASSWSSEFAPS

For `CCOC(=O)C1=C(C)NC(c2ccccc2)=C(C(=O)OCc2ccccc2)C1C#Cc1ccccc1` (stereo not shown) [Compound 69], the “rA2A displacement of specific binding (class d)” value (from here on “rA2A displacement”) in test [1] (at 10^−4 M, compound 69, value taken from the literature) is on record as “d (10^−4) (Displacement of < 10% of specific binding at the indicated concentration (M).)”.
Regarding `CCOC(=O)C1=C(C)NC(c2ccccc2)=C(C(=O)OCC)C1C=Cc1ccccc1` (stereo not shown) [Compound 68], the inhibition constant Ki in test [1] is 4770 ± 290 nM.
Take `CCSC(=O)c1c(CC)nc(-c2ccccc2)c(C(=O)OCCO)c1CC` [Compound 50, 5-Hydroxylethyl 2,4-diethyl-3-(ethylsulfanylcarbonyl)-6-phenylpyridine-5-carboxylate]: the Ki in test [2] (Table 2, compounds 33-58) amounted to 188 ± 61 nM; in test [3] it was 17400 ± 5290 nM; in test [4] it was 2870 ± 480 nM; in test [5] (Table 2, compounds 33-58), 10000 ± 3000 nM. In addition, the rA1/hA3 in test [2] (Table 2) was 93. Besides, the rA3/hA3 in test [4] is reported as 15. The rA1/rA3 in test [4] was 6.1.
For the molecule `CCOC(=O)c1c(-c2ccccc2)nc(C)c(C(=O)SCC)c1CC` [Compound 36, 5-Ethyl 2-methyl-4-ethyl-3-(ethylsulfanylcarbonyl)-6-phenylpyridine-5-carboxylate], the Ki in test [2] (Table 2, compounds 33-58) is 42.9 ± 8.8 nM; in test [3], 14800 ± 3500 nM; in test [4], 1470 ± 340 nM; in test [5] (Table 2, compounds 33-58), 14900 ± 4100 nM. Further, the rA1/hA3 in test [2] (Table 2) is on record as 340. Moreover, in test [4], the rA3/hA3 is 34. Moreover, the rA1/rA3 in test [4] was 10.
As to `CCOC(=O)C1=C(C)NC(c2ccccc2)=C(C(=O)OCC)C1C` (stereo not shown) [Compound 59], the Ki in test [1] is 35900 ± 15300 nM.
Turning to `CCOC(=O)C1=C(c2ccccc2)NC(CC)=C(C(=O)SCC)C1CC` (racemic) [Compound 75, 5-Ethyl 2,4-diethyl-6-phenyl-3-(ethylsulfanylcarbonyl)-1,4-(±)-dihydropyridine-5-carboxylate], in test [2] (Table 3), the Ki is 907 ± 44 nM and the rA1/hA3 was above 50. In addition, in test [3], the inhibition at 100 µM amounted to 34 ± 7%. In test [4], the Ki was found to be 2520 ± 880 nM, the rA3/hA3 is 2.8 and the rA1/rA3 was above 30. Further, the Ki in test [5] (Table 3) amounted to 29100 ± 9900 nM.
In the case of `CCOC(=O)c1c(C2CCCC2)nc(CC)c(C(=O)SCC)c1CC` [Compound 52, 5-Ethyl 2,4-diethyl-3-(ethylsulfanylcarbonyl)-6-cyclopentylpyridine-5-carboxylate], the inhibition constant (Ki) in test [2] (Table 2, compounds 33-58) came to 4010 ± 2490 nM; in test [3] it was 55300 ± 14700 nM; in test [4], 2800 ± 220 nM; in test [5] (Table 2, compounds 33-58), 26100 ± 6200 nM. In test [2] (Table 2), the rA1/hA3 is 14. Moreover, in test [4], the rA3/hA3 is 0.83. Also, in test [4], the rA1/rA3 was above 20.
Regarding `CCCCc1nc(-c2ccccc2)c(C(=O)OCC)c(CC)c1C(=O)SCC` [Compound 57, 5-Ethyl 2-butyl-4-ethyl-3-(ethylsulfanylcarbonyl)-6-phenylpyridine-5-carboxylate], the Ki in test [2] (Table 2, compounds 33-58) came out at 35 ± 9.1 nM. Further, the rA1/hA3 in test [2] (Table 2) came to 1200. Moreover, in test [3], the Ki was determined as 40300 ± 7400 nM. For the same molecule, in test [4], the Ki is 2260 ± 50 nM, the rA3/hA3 is reported as 64 and the rA1/rA3 is recorded as 18. Moreover, the “rA2A displacement” value in test [5] (Table 2) is listed as “d (10^−4) (Displacement of <10% of specific binding at the indicated concentration (M).)”.
Consider `CCCc1c(C(=O)SCC)c(C)nc(-c2ccccc2)c1C(=O)OCC` [Compound 38, 5-Ethyl-2-methyl-4-propyl-3-(ethylsulfanylcarbonyl)-6-phenylpyridine-5-carboxylate], for which the Ki in test [2] (Table 2, compounds 33-58) came to 194 ± 51 nM. The rA1/hA3 in test [2] (Table 2) was above 700. Moreover, in test [3], the “rA1 percentage of specific binding displaced” value is 29 ± 6% (10^−4). Besides, in test [4], the Ki amounted to 650 ± 70 nM, the rA3/hA3 turned out to be 3.4 and the rA1/rA3 is recorded as above 100. Besides, the Ki in test [5] (Table 2, compounds 33-58) is 7530 ± 2700 nM.
With `CCOC(=O)c1c(-c2ccccc2)nc(CC)c(C(=O)SCC)c1CC` [Compound 48, 5-Ethyl 2,4-diethyl-3-(ethylsulfanylcarbonyl)-6-phenylpyridine-5-carboxylate], the Ki in test [2] (Table 2, compounds 33-58) was 20 ± 1.9 nM. The rA1/hA3 in test [2] (Table 2) is above 3000. For the same molecule, the “rA1 percentage of specific binding displaced” value in test [3] is on record as 41 ± 6% (10^−4). Besides, in test [4], the Ki was 410 ± 48 nM, the rA3/hA3 is 21 and the rA1/rA3 is above 100. Besides, the Ki in test [5] (Table 2, compounds 33-58) is 6130 ± 1280 nM.
Take `CCCC1=C(C(=O)SCC)C(CC)C(C(=O)OCC)=C(c2ccccc2)N1` (racemic) [Compound 76, 5-Ethyl 2-propyl-4-ethyl-6-phenyl-3-(ethylsulfanylcarbonyl)-1,4-(±)-dihydropyridine-5-carboxylate]: in test [2] (Table 3), the Ki is 2090 ± 40 nM and the rA1/hA3 is recorded as above 20. Moreover, the inhibition at 100 µM in test [3] worked out at 26 ± 19%. In addition, in test [4], the Ki was determined as 2730 ± 140 nM, the rA3/hA3 is recorded as 1.3 and the rA1/rA3 is listed as above 30. Also, the “rA2A displacement” value in test [5] (Table 3) is on record as “d (10^−4) (Displacement of < 10% of specific binding at the indicated concentration (M).)”.
On to `CCCOC(=O)c1c(-c2ccccc2)nc(CC)c(C(=O)SCC)c1CCC` [Compound 49b, 5-Propyl 2-ethyl-4-propyl-3-(ethylsulfanylcarbonyl)-6-phenylpyridine-5-carboxylate], for which, in test [2] (Table 2, compounds 33-58), the Ki is 24.5 ± 4 nM. Besides, in test [2] (Table 2), the rA1/hA3 is listed as 7400. Also, the Ki in test [3] turned out to be 18200 ± 9000 nM. For the same molecule, in test [4], the inhibition constant (Ki) is 113 ± 12 nM, the rA3/hA3 stood at 6.0 and the rA1/rA3 was determined as 140. In test [4] (both species), the “affinity at rat and human A3 receptors (in words)” value is “high affinity at both species”. In test [5] (Table 2), the “rA2A displacement” value was “d (10^−4) (Displacement of <10% of specific binding at the indicated concentration (M).)”.

Source of the values: US6376521B1, “A3 adenosine receptor antagonists” (The United States of America as represented by the …, priority 1998, dated 2002).
